Biological target: human F508del-CFTR (Homo sapiens, UniProt P13569, DEL508-508)
Experiment: F508del-CFTR cell surface expression (corrector activity), DiscoveRx ß-galactosidase complementation chemiluminescence assay in recombinant U2OS cell line;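 further: U2OS cells co-expressing ProLink-tagged F508del-CFTR and a membrane-anchored enzyme acceptor, where more surface CFTR restores β-galactosidase activity measured by chemiluminescence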
Settings: for EC50: EC50, F508del-CFTR cell surface expression, U2OS cells, 16h compound incubation, geomean values; for Emax: U2OS, in relation to Emax of corrector lumacaftor (=100%), arithmetic mean values

human F508del-CFTR, sequence (P13569 with tags, fused parts or gaps DEL508-508): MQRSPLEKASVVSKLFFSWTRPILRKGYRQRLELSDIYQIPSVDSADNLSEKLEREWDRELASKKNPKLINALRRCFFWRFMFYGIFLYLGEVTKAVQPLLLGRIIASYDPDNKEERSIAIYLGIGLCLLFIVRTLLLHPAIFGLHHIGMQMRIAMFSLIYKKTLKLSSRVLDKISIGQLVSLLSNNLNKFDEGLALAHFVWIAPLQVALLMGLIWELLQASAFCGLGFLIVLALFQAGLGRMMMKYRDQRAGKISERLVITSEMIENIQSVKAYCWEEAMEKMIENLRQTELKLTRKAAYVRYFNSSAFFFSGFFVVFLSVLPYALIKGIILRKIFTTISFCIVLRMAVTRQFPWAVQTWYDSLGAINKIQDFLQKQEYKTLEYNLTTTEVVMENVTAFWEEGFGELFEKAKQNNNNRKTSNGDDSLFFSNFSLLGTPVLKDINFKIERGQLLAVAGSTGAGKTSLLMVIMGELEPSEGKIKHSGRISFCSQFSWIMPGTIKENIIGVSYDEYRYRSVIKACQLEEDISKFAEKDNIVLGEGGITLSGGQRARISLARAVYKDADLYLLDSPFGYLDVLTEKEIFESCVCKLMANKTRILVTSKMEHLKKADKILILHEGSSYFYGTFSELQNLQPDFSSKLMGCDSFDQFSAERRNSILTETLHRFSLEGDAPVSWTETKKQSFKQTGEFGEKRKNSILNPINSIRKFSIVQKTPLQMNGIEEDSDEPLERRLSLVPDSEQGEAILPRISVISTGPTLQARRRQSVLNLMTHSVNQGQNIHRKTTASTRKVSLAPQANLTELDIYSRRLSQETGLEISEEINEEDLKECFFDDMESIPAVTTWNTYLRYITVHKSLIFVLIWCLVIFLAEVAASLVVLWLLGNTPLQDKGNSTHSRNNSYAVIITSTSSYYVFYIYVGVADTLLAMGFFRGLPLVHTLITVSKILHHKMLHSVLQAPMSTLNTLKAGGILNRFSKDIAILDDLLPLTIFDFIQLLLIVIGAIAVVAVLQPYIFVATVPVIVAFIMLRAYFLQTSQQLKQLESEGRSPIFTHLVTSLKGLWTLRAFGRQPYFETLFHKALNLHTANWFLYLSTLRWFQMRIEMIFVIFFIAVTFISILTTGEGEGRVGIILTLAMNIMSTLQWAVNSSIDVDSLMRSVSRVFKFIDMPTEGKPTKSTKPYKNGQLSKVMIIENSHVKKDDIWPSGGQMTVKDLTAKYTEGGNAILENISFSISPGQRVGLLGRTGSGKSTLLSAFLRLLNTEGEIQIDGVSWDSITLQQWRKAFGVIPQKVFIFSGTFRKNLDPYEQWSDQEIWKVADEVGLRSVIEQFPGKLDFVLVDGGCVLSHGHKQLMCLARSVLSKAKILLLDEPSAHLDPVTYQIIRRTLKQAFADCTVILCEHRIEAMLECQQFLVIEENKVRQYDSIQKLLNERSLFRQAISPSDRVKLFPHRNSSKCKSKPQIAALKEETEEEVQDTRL

EC50	Emax	Structure (SMILES)
548 nM	328%	COc1nccc2c1C(=O)N[C@H](C(=O)NCCc1cccc(-n3nccn3)c1)CC(=O)N(C)[C@@H](CC(C)C)C(=O)N1CCCC[C@@H]1C(=O)N[C@H](Cc1ccccc1)CO2 [Example 466, (7S,11S,17aR,20R)-N-(3-(2H-1,2,3-triazol-2-yl)phenethyl)-20-benzyl-11-isobutyl-4-methoxy-10-methyl-5,9,12,18-tetraoxo-5,6,7,8,9,10,11,12,15,16,17,17a,18,19,20,21-hexadecahydro-14H-dipyrido[2,1-f:3′,4′-p][1]oxa[4,7,10,14]tetraazacycloheptadecine-7-carboxamide]
936 nM	152%	COc1nccc2c1C(=O)N[C@H](C(=O)NCCc1cccc(-n3nccn3)c1)CC(=O)N(C)[C@@H](CC(C)C)C(=O)N1CCCC[C@H]1C(=O)N[C@H](Cc1ccccc1)CO2 [Example 467, (7S,11S,17aS,20R)-N-(3-(2H-1,2,3-triazol-2-yl)phenethyl)-20-benzyl-11-isobutyl-4-methoxy-10-methyl-5,9,12,18-tetraoxo-5,6,7,8,9,10,11,12,15,16,17,17a,18,19,20,21-hexadecahydro-14H-dipyrido[2,1-f:3′,4′-p][1]oxa[4,7,10,14]tetraazacycloheptadecine-7-carboxamide]
504 nM	361%	COc1nccc2c1C(=O)N[C@H](C(=O)NCCc1ccc(-n3nccn3)cc1)CC(=O)N(C)[C@@H](CC(C)C)C(=O)N1CCCC[C@@H]1C(=O)N[C@H](Cc1ccccc1)CO2 [Example 468, (7S,11S,17aR,20R)-N-(4-(2H-1,2,3-triazol-2-yl)phenethyl)-20-benzyl-11-isobutyl-4-methoxy-10-methyl-5,9,12,18-tetraoxo-5,6,7,8,9,10,11,12,15,16,17,17a,18,19,20,21-hexadecahydro-14H-dipyrido[2,1-f:3′,4′-p][1]oxa[4,7,10,14]tetraazacycloheptadecine-7-carboxamide]
662 nM	169%	Cc1cc(CCNC(=O)[C@@H]2CC(=O)N(C)[C@@H](CC(C)C)C(=O)N3CCCC[C@@H]3C(=O)N[C@H](Cc3ccccc3)COc3nc4ccccn4c3C(=O)N2)on1 [Example 470, (7S,11S,22R,24aR)-22-benzyl-7-isobutyl-8-methyl-N-(2-(3-methylisoxazol-5-yl)ethyl)-6,9,13,24-tetraoxo-1,3,4,6,7,8,9,10,11,12,13,21,22,23,24,24a-hexadecahydro-2H-pyrido[2,1-f]pyrido[2′,1′:2,3]imidazo[4,5-p][1]oxa[4,7,10,14]tetraazacycloheptadecine-11-carboxamide]
284 nM	239%	CC(C)C[C@H]1C(=O)N2CCCC[C@@H]2C(=O)N[C@H](Cc2ccccc2)COc2ccc3ncccc3c2C(=O)N[C@H](C(=O)NCCc2ccc(-n3nccn3)cc2)CC(=O)N1C [Example 472, (9S,13S,19aR,22R)-N-(4-(2H-1,2,3-triazol-2-yl)phenethyl)-22-benzyl-13-isobutyl-12-methyl-7,11,14,20-tetraoxo-7,8,9,10,11,12,13,14,17,18,19,19a,20,21,22,23-hexadecahydro-16H-pyrido[2′,1′:6,7][1]oxa[4,7,10,14]tetraazacycloheptadecino[16,17-f]quinoline-9-carboxamide]
585 nM	119%	CC(C)C[C@H]1C(=O)N2CCCC[C@H]2C(=O)N[C@H](Cc2ccccc2)COc2ccc3ncccc3c2C(=O)N[C@H](C(=O)NCCc2ccc(-n3nccn3)cc2)CC(=O)N1C [Example 473, (9S,13S,19aS,22R)-N-(4-(2H-1,2,3-triazol-2-yl)phenethyl)-22-benzyl-13-isobutyl-12-methyl-7,11,14,20-tetraoxo-7,8,9,10,11,12,13,14,17,18,19,19a,20,21,22,23-hexadecahydro-16H-pyrido[2′,11:6,7][1]oxa[4,7,10,14]tetraazacycloheptadecino[16,17-f]quinoline-9-carboxamide]
478 nM	359%	Cc1cc(CCNC(=O)[C@@H]2CC(=O)N(C)[C@@H](CC(C)C)C(=O)N3CCCC[C@@H]3C(=O)N[C@H](Cc3ccccc3)COc3ccc4ncccc4c3C(=O)N2)on1 [Example 474, (9S,13S,19aR,22R)-22-benzyl-13-isobutyl-12-methyl-N-(2-(3-methylisoxazol-5-yl)ethyl)-7,11,14,20-tetraoxo-7,8,9,10,11,12,13,14,17,18,19,19a,20,21,22,23-hexadecahydro-16H-pyrido[2′,11:6,7][1]oxa[4,7,10,14]tetraazacycloheptadecino[16,17-f]quinoline-9-carboxamide]
992 nM	314%	Cc1cc(CCNC(=O)[C@@H]2CC(=O)N(C)[C@@H](CC(C)C)C(=O)N3CCN(S(=O)(=O)c4cccnc4)C[C@@H]3C(=O)N[C@H](Cc3ccccc3)COc3ccc4ccccc4c3C(=O)N2)on1 [Example 475, (4aR,7R,18S,22S)-7-benzyl-22-isobutyl-21-methyl-N-(2-(3-methylisoxazol-5-yl)ethyl)-5,16,20,23-tetraoxo-3-(pyridin-3-ylsulfonyl)-2,3,4,4a,5,6,7,8,16,17,18,19,20,21,22,23-hexadecahydro-1H-naphtho[1,2-p]pyrazino[2,1-f][1]oxa[4,7,10,14]tetraazacycloheptadecine-18-carboxamide]
333 nM	344%	CC(C)C[C@H]1C(=O)N(C)C2(CC2)C(=O)N[C@H](Cc2ccccc2)COc2cnc3ccccc3c2C(=O)N[C@H](C(=O)NCCc2cc(C3CC3)no2)CC(=O)N1C [Example 476, (3′S,7′S,13′R)-13′-benzyl-N-(2-(3-cyclopropylisoxazol-5-yl)ethyl)-7′-isobutyl-6′,9′-dimethyl-1′,5′,8′,11′-tetraoxo-2′,3′,4′,5′,6′,7′,8′,9′,11′,12′,13′,14′-dodecahydro-1′H-spiro[cyclopropane-1,10′-[1]oxa[4,7,10,14]tetraazacycloheptadecino[17,16-c]quinoline]-3′-carboxamide]

Structure (SMILES)	EC50	Emax
COc1cccc(CCNC(=O)[C@@H]2CC(=O)N(C)[C@@H](CC(C)C)C(=O)N3CCCC[C@@H]3C(=O)N[C@H](Cc3ccccc3)COc3nc4ccccn4c3C(=O)N2)c1 [Example 469, (7S,11S,22R,24aR)-22-benzyl-7-isobutyl-N-(3-methoxyphenethyl)-8-methyl-6,9,13,24-tetraoxo-1,3,4,6,7,8,9,10,11,12,13,21,22,23,24,24a-hexadecahydro-2H-pyrido[2,1-f]pyrido[2′,1′:2,3]imidazo[4,5-p][1]oxa[4,7,10,14]tetraazacycloheptadecine-11-carboxamide]	381 nM	110%
COc1cccc(CCNC(=O)[C@@H]2CC(=O)N(C)[C@@H](CC(C)C)C(=O)N(C)C3(CC3)C(=O)N[C@H](Cc3ccccc3)COc3ccc4cccnc4c3C(=O)N2)c1 [Example 471, (9′R,15′S,19′S)-9′-benzyl-15′-isobutyl-N-(3-methoxyphenethyl)-13′,16′-dimethyl-11′,14′,17′,21′-tetraoxo-8′,9′,10′,11′,14′,15′,16′,17′,18′,19′,20′,21′-dodecahydro-13′H-spiro[cyclopropane-1,12′-[1]oxa[4,7,10,14]tetraazacycloheptadecino[17,16-h]quinoline]-19′-carboxamide]	981 nM	278%
